Calls of active or inactive are those of the source. No cut-off for these calls is given here.
How the values were obtained:
[1] = system: Pseudomonas aeruginosa; test: Antibacterial activity against VIM2 carbapenemase producing multidrug-resistant Pseudomonas aeruginosa GR57 clinical isolate infected in Galleria mellonella larvae assessed as survival rate at 4.8 mg/kg measured at 96 hrs; assay type: functional, organism-based
[2] = system: Pseudomonas aeruginosa; test: Antibacterial activity against VIM2 carbapenemase producing multidrug-resistant Pseudomonas aeruginosa 6 clinical isolate up to 512 mg/L by broth microtiter dilution method; assay type: functional, organism-based
[3] = Toxicity in Galleria mellonella larvae assessed as survival rate up to 80 mg/kg measured at 96 hrs; assay type: organism-based; details: in vivo
[4] = system: Pseudomonas aeruginosa; test: Antibacterial activity against VIM2 carbapenemase producing multidrug-resistant Pseudomonas aeruginosa 16 clinical isolate up to 512 mg/L by broth microtiter dilution method; assay type: functional, organism-based
[5] = system: Pseudomonas aeruginosa; test: Potentiation of meropenem-induced antibacterial activity against VIM2 carbapenemase producing multidrug-resistant Pseudomonas aeruginosa GR64 clinical isolate assessed as MIC of meropenem at 1:8 meropenem:compound ratio by broth microtiter dilution method; assay type: functional
[6] = system: Pseudomonas aeruginosa; test: Antibacterial activity against VIM2 carbapenemase producing multidrug-resistant Pseudomonas aeruginosa GR58 clinical isolate up to 512 mg/L by broth microtiter dilution method; assay type: functional, organism-based
[7] = system: Providencia stuartii; test: Antibacterial activity against VIM1 carbapenemase producing multidrug-resistant Providencia stuartii 70 clinical isolate up to 512 mg/L by broth microtiter dilution method; assay type: functional, organism-based
[8] = system: Pseudomonas aeruginosa; test: Potentiation of meropenem-induced antibacterial activity against VIM2 carbapenemase producing multidrug-resistant Pseudomonas aeruginosa 6 clinical isolate assessed as MIC of meropenem at 1:8 meropenem:compound ratio by broth microtiter dilution method; assay type: functional
[9] = system: Klebsiella pneumoniae; test: Antibacterial activity against VIM4 carbapenemase producing multidrug-resistant Klebsiella pneumoniae 120 clinical isolate up to 512 mg/L by broth microtiter dilution method; assay type: functional, organism-based
[10] = system: Klebsiella oxytoca; test: Potentiation of meropenem-induced antibacterial activity against VIM4 carbapenemase producing multidrug-resistant Klebsiella oxytoca 126 clinical isolate assessed as MIC of meropenem at 1:8 meropenem:compound ratio by broth microtiter dilution method; assay type: functional
[11] = system: Pseudomonas aeruginosa; test: Potentiation of meropenem-induced antibacterial activity against VIM2 carbapenemase producing multidrug-resistant Pseudomonas aeruginosa 16 clinical isolate at 1:8 meropenem:compound ratio by checkerboard method; assay type: functional
[12] = system: Escherichia coli; test: Potentiation of meropenem-induced antibacterial activity against VIM4 carbapenemase producing multidrug-resistant Escherichia coli 98 clinical isolate infected in Galleria mellonella larvae assessed as relative risk of survival at 4.8 mg/kg measured at 96 hrs relative to control; assay type: functional
[13] = system: Klebsiella pneumoniae; test: Antibacterial activity against VIM1 carbapenemase producing multidrug-resistant Klebsiella pneumoniae GR54 clinical isolate up to 512 mg/L by broth microtiter dilution method; assay type: functional, organism-based
[14] = system: Pseudomonas aeruginosa; test: Antibacterial activity against VIM2 carbapenemase producing multidrug-resistant Pseudomonas aeruginosa GR62 clinical isolate up to 512 mg/L by broth microtiter dilution method; assay type: functional, organism-based
[15] = system: Pseudomonas aeruginosa; test: Antibacterial activity against VIM2 carbapenemase producing multidrug-resistant Pseudomonas aeruginosa 15 clinical isolate up to 512 mg/L by broth microtiter dilution method; assay type: functional, organism-based
[16] = system: Escherichia coli; test: Potentiation of meropenem-induced antibacterial activity against VIM4 carbapenemase producing multidrug-resistant Escherichia coli 98 clinical isolate at 1:8 meropenem:compound ratio by checkerboard method; assay type: functional
[17] = system: Enterobacter cloacae; test: Potentiation of meropenem-induced antibacterial activity against VIM4 carbapenemase producing multidrug-resistant Enterobacter cloacae 102 clinical isolate at 1:8 meropenem:compound ratio by checkerboard method; assay type: functional
[18] = system: Klebsiella pneumoniae; test: Antibacterial activity against VIM4 carbapenemase producing multidrug-resistant Klebsiella pneumoniae 101 clinical isolate up to 512 mg/L by broth microtiter dilution method; assay type: functional, organism-based
[19] = system: Klebsiella oxytoca; test: Potentiation of meropenem-induced antibacterial activity against VIM4 carbapenemase producing multidrug-resistant Klebsiella oxytoca 126 clinical isolate at 1:8 meropenem:compound ratio by checkerboard method; assay type: functional
[20] = system: Pseudomonas aeruginosa; test: Potentiation of meropenem-induced antibacterial activity against VIM2 carbapenemase producing multidrug-resistant Pseudomonas aeruginosa 12 clinical isolate assessed as MIC of meropenem at 1:8 meropenem:compound ratio by broth microtiter dilution method; assay type: functional
[21] = system: Klebsiella oxytoca; test: Potentiation of meropenem-induced antibacterial activity against VIM4 carbapenemase producing multidrug-resistant Klebsiella oxytoca 95 clinical isolate at 1:8 meropenem:compound ratio by checkerboard method; assay type: functional
[22] = system: Klebsiella pneumoniae; test: Potentiation of meropenem-induced antibacterial activity against VIM4 carbapenemase producing multidrug-resistant Klebsiella pneumoniae 196 clinical isolate at 1:8 meropenem:compound ratio by checkerboard method; assay type: functional
[23] = system: Pseudomonas aeruginosa; test: Potentiation of meropenem-induced antibacterial activity against VIM2 carbapenemase producing multidrug-resistant Pseudomonas aeruginosa GR57 clinical isolate at 1:8 meropenem:compound ratio by checkerboard method; assay type: functional
[24] = system: Pseudomonas aeruginosa; test: Potentiation of meropenem-induced antibacterial activity against VIM2 carbapenemase producing multidrug-resistant Pseudomonas aeruginosa 14 clinical isolate assessed as MIC of meropenem at 1:8 meropenem:compound ratio by broth microtiter dilution method; assay type: functional
[25] = system: Klebsiella oxytoca; test: Antibacterial activity against VIM4 carbapenemase producing multidrug-resistant Klebsiella oxytoca 126 clinical isolate up to 512 mg/L by broth microtiter dilution method; assay type: functional, organism-based
[26] = system: Escherichia coli; test: Potentiation of meropenem-induced antibacterial activity against VIM4 carbapenemase producing multidrug-resistant Escherichia coli 98 clinical isolate infected in Galleria mellonella larvae assessed as survival rate at 4.8 mg/kg measured at 96 hrs; assay type: functional; details: Escherichia coli, 98, 96 h
[27] = system: Pseudomonas aeruginosa; test: Potentiation of meropenem-induced antibacterial activity against VIM2 carbapenemase producing multidrug-resistant Pseudomonas aeruginosa 47 clinical isolate assessed as MIC of meropenem at 1:8 meropenem:compound ratio by broth microtiter dilution method; assay type: functional
[28] = system: Klebsiella pneumoniae; test: Potentiation of meropenem-induced antibacterial activity against VIM1 carbapenemase producing multidrug-resistant Klebsiella pneumoniae GR54 clinical isolate assessed as MIC of meropenem at 1:8 meropenem:compound ratio by broth microtiter dilution method; assay type: functional
[29] = system: Pseudomonas aeruginosa; test: Potentiation of meropenem-induced antibacterial activity against VIM2 carbapenemase producing multidrug-resistant Pseudomonas aeruginosa 50 clinical isolate assessed as MIC of meropenem at 1:8 meropenem:compound ratio by broth microtiter dilution method; assay type: functional
[30] = system: Pseudomonas aeruginosa; test: Potentiation of meropenem-induced antibacterial activity against VIM2 carbapenemase producing multidrug-resistant Pseudomonas aeruginosa GR57 clinical isolate infected in Galleria mellonella larvae assessed as survival rate at 4.8 mg/kg measured at 96 hrs; assay type: functional; details: GR57, 96 h
[31] = system: Providencia stuartii; test: Potentiation of meropenem-induced antibacterial activity against VIM1 carbapenemase producing multidrug-resistant Providencia stuartii 67 clinical isolate assessed as MIC of meropenem at 1:8 meropenem:compound ratio by broth microtiter dilution method; assay type: functional
[32] = system: Pseudomonas aeruginosa; test: Potentiation of meropenem-induced antibacterial activity against VIM2 carbapenemase producing multidrug-resistant Pseudomonas aeruginosa 12 clinical isolate at 1:8 meropenem:compound ratio by checkerboard method; assay type: functional
[33] = system: Klebsiella oxytoca; test: Antibacterial activity against VIM4 carbapenemase producing multidrug-resistant Klebsiella oxytoca 95 clinical isolate up to 512 mg/L by broth microtiter dilution method; assay type: functional, organism-based
[34] = system: Pseudomonas aeruginosa; test: Potentiation of meropenem-induced antibacterial activity against VIM2 carbapenemase producing multidrug-resistant Pseudomonas aeruginosa 8 clinical isolate at 1:8 meropenem:compound ratio by checkerboard method; assay type: functional
[35] = system: Klebsiella pneumoniae; test: Potentiation of meropenem-induced antibacterial activity against VIM4 carbapenemase producing multidrug-resistant Klebsiella pneumoniae 120 clinical isolate infected in Galleria mellonella larvae assessed as survival rate at 4.8 mg/kg measured at 96 hrs; assay type: functional; details: Klebsiella pneumoniae, 120, 96 h

## O=C(O)/C(S)=C/c1c(Cl)ccc(Cl)c1Cl
[1]
  Activity: Active
[2]
  Activity: inactive
[3]
  survival at 96 h: 100%
[4]
  Activity: inactive
[5]
  MIC: 4 µg/mL
[6]
  Activity: inactive
[7]
  Activity: inactive
[8]
  MIC: 16 µg/mL
[9]
  Activity: inactive
[10]
  MIC: 4 µg/mL
[11]
  fractional inhibitory concentration index (FICI): 0.5
[12]
  fold change (FC): 0.64
[13]
  Activity: inactive
[14]
  Activity: inactive
[15]
  Activity: inactive
[16]
  fractional inhibitory concentration index (FICI): 0.16
[17]
  fractional inhibitory concentration index (FICI): 0.19
[18]
  Activity: inactive
[19]
  fractional inhibitory concentration index (FICI): 0.19
[20]
  MIC: 32 µg/mL
[21]
  fractional inhibitory concentration index (FICI): 0.38
[22]
  fractional inhibitory concentration index (FICI): 0.08
[23]
  fractional inhibitory concentration index (FICI): 0.19
[24]
  MIC: 2 µg/mL
[25]
  Activity: inactive
[26]
  survival at 4.8 mg/kg: 69%
[27]
  MIC: 1 µg/mL
[28]
  MIC: 4 µg/mL
[29]
  MIC: 8 µg/mL
[30]
  survival at 4.8 mg/kg: 81%
[31]
  MIC: 1 µg/mL
[32]
  fractional inhibitory concentration index (FICI): 0.75
[33]
  Activity: inactive
[34]
  fractional inhibitory concentration index (FICI): 0.38
[35]
  survival at 4.8 mg/kg: 98%
